Row | melting point | SMILES
1 | 100 to 101 °C | Cc1cc(O)c(SCCc2ccccc2)c(=O)o1
2 | 125 °C | CCOC(=O)c1ccsc1Nc1ccc(F)cc1[N+](=O)[O-]
3 | 137 °C | COC(=O)CCCc1cc2nc(C(F)(F)F)ccc2[nH]1
4 | 106 to 109 °C | CS(=O)(=O)c1ccc(C(CC2CCOCC2)c2cnc(-c3ccccn3)[nH]2)cc1Cl (stereo not given)
5 | 83 °C | CCN(CC)C(=O)Oc1cc(-c2cccc(Cl)c2)nc2ccccc12
6 | 114 to 116 °C | O=C(O)Cc1csc2cc(-c3ccccc3)cn12
7 | 161 to 162 °C | CCN(CC)CC(=O)N1c2ccccc2N(C)S(=O)(=O)c2ccccc21
8 | 141 to 143 °C | ON=Cc1cccc(OCCN2CCC(Cc3ccccc3)CC2)c1
9 | 210 to 211 °C | O=C(O)c1cccc(-c2ccc3c(c2)N(c2cc(Cl)cc(Cl)c2)CC3)c1
10 | 183 to 185 °C | NC(=O)NC1CCN(Cc2ccc3ccccc3c2)CC1
11 | 241 °C | NS(=O)(=O)c1cccc(NC(=O)c2cnn3c(C(F)F)cc(-c4ccc(C(F)(F)F)c(OCC(F)(F)F)c4)nc23)c1
12 | 135 to 136 °C | Cc1cc(NC(=O)CC(C)(C)C)c(C)c2c1OCC2c1ccc(C(C)C)cc1 (stereo not given)
13 | 180 to 181 °C | CC(C)(C)OC(=O)Nc1cc(OCc2ccccc2)c2ncccc2c1
14 | 126 °C | FC(F)(F)c1cnc(CNC(=S)Nc2ccccc2Cl)c(Cl)c1
15 | 185 to 187 °C | CCCNc1ncc2c(=O)[nH]c(-c3ccccc3OCCC)nc2n1
16 | 192 °C | Cn1c(C(F)(F)F)cc(=O)n(-c2cc(O)c(Br)cc2F)c1=O
17 | 152 to 155 °C | O=S(=O)(Cl)Oc1cccc2cnccc12
18 | 312 to 315 °C | O=c1[nH]c(Nc2ccccc2)nc2c1ncn2CC(O)CO (stereo not given)
19 | 123 to 124 °C | COC(=O)CCCc1cc2nc(Cl)ccc2n1S(=O)(=O)c1ccc(N(C)C)cc1Cl
20 | 147 to 149 °C | NS(=O)(=O)c1ccc(-c2cccn2-c2ccc(Cl)cc2Cl)cc1

Continued, compound first:

Row | SMILES | melting point
21 | Cn1nnnc1SCC1NCCc2cc(OCc3ccccc3)c(OCc3ccccc3)cc21 (stereo not given) | 106 to 108 °C
22 | N#Cc1cccc(-c2cnc3cnc(-c4ccc(O)cc4)nc3c2)c1 | > 268 °C
23 | O=CC1c2ccccc2C(C=O)c2ccccc21 (stereo not given) | 132 to 135 °C
24 | CN(C)CCCOc1ccc(-c2nnc(-c3ccc(Oc4ccccc4)cc3)o2)cc1 | 95 °C
25 | CC(=O)NC(=Cc1ccc(OC(C)=O)cc1)C(=O)O | 236 to 237 °C
26 | Nc1ccc(OC(=O)C2CCCCC2)c(C(=O)O)c1 | 116 to 121 °C
27 | COC(C)CC(=O)NC1CCC(CCN2CCN(c3nccc4c3CCO4)CC2)CC1 (stereo not given) | 167 °C
28 | CC1(C)CCC(C)(C)c2cc3cc(-c4ccc(C(=O)O)o4)ccc3cc21 | 229 to 230 °C
29 | CCC(CC)c1ccc(Cl)c2nc3n(c12)CCCCN3c1ncc([N+](=O)[O-])cc1C | 204 to 205 °C
30 | COc1ccc(-c2nc(-c3ccccc3)n(CCCCCCCC(=O)O)c2-c2ccc(OC)cc2)cc1 | 149 to 150 °C
31 | O=C(NCCCc1ccncc1)N(CCC(F)(F)F)CCC12CC3CC(CC(C3)C1)C2 | 108 to 109 °C
32 | CCN1c2ncc(/C=C/c3ccncc3)cc2C(=O)N(C)c2cccnc21 | 150 °C
33 | COc1cc2c(cc1OC)C(c1cccc(Cl)c1)=NN=C(C)C2 | 166 to 168 °C
34 | CN1CCC(N(C)c2ncc3ncnc(Nc4cccc([N+](=O)[O-])c4)c3n2)CC1 | 199 to 203 °C
35 | CCCOc1ccc(S(=O)(=O)Nc2ccc3[nH]ncc3c2)cc1-c1nc2cc(N)c(N)cc2c(=O)[nH]1 | 261 to 263 °C
36 | CCOC(=O)C1CC2=C(CO1)C(=O)C(Cl)=CC2=O (stereo not given) | 83.5 °C
37 | c1ccc(COc2cccc(OCc3ccccc3)c2OCc2ccccc2)cc1 | 67 to 68 °C
38 | COC(=O)c1cc(C)c(-c2cccc(O)c2C)c(C)c1 | 149 °C
39 | Cc1cccc(CC(=O)c2ccnc(-c3ccc(C(=O)N4CCOCC4)cc3)c2)n1 | 106 °C
40 | Cc1cccc(-c2sc(N)nc2-c2ccnc(-c3ccc(C(=O)NC4CCOCC4)cc3)c2)n1 | 283 °C
41 | COc1ccc(-n2nc(OC(C)C)cc2-c2ccc(OCCNS(C)(=O)=O)cc2)cn1 | 121 to 122 °C
42 | CCCCCC1CN(C(=O)c2cc(OC)c(OC)c(OC)c2)CCN1C(=O)c1cc(OC)c(OC)c(OC)c1 (stereo not given) | 139 to 140 °C
43 | COc1cc(C(=O)CS(C)(=O)=O)cc(OC)c1N(C)C(C)=O | 141 to 142 °C
44 | COCCN1C(=O)C(C)(C)C(=O)Nc2cc(C#N)ccc21 | 184 to 185 °C
45 | CCCCOc1ccc(S(=O)(=O)C2(C(=O)NO)CCN(C)CC2)cc1 | 118 °C
46 | COc1cccc(-c2ccc(-c3ccccc3S(=O)(=O)Nc3onc(C)c3C)cc2)n1 | 132 to 134 °C
47 | CON=Cc1c[nH]c(-c2ccc(F)cc2)c1-c1ccncc1 | 242 to 248 °C
48 | c1cc2cc(N3CCOCC3)ccc2s1 | 127 to 132 °C
49 | COc1ccc(OC)c2c1CCC(O)(CC(=O)O)C2 (stereo not given) | 112 to 114 °C
50 | COc1ccc(F)cc1C1CC(=O)CC(=O)C1 | 160 to 161 °C
